Experiment: molar heat capacity at constant volume
Settings: Fluid (supercritical or subcritical phases), Vacuum adiabatic calorimetry

CCC(C)O (stereo not given) [butan-2-ol]
Settings	molar heat capacity at constant volume [J/K/mol]
462.76 K, Mass density=598.18 kg/m3	276.1
462.95 K, Mass density=598.18 kg/m3	279.07
463.15 K, Mass density=598.18 kg/m3	277.81
463.35 K, Mass density=598.18 kg/m3	282.48
463.45 K, Mass density=598.18 kg/m3	292.34
463.74 K, Mass density=598.18 kg/m3	258.76
463.93 K, Mass density=598.18 kg/m3	219.18
464.13 K, Mass density=598.18 kg/m3	217.62
464.33 K, Mass density=598.18 kg/m3	217.32
464.53 K, Mass density=598.18 kg/m3	218.88
464.72 K, Mass density=598.18 kg/m3	216.73
464.92 K, Mass density=598.18 kg/m3	217.62
465.11 K, Mass density=598.18 kg/m3	217.55
465.31 K, Mass density=598.18 kg/m3	218.07
467.66 K, Mass density=598.18 kg/m3	219.18
467.86 K, Mass density=598.18 kg/m3	218.88
468.05 K, Mass density=598.18 kg/m3	218.44
468.25 K, Mass density=598.18 kg/m3	219.84
468.45 K, Mass density=598.18 kg/m3	219.92
469.23 K, Mass density=598.18 kg/m3	222.44
469.42 K, Mass density=598.18 kg/m3	222.36
481.46 K, Mass density=538.17 kg/m3	279.66
481.66 K, Mass density=538.17 kg/m3	284.78
481.85 K, Mass density=538.17 kg/m3	283.59
482.04 K, Mass density=538.17 kg/m3	284.55
482.24 K, Mass density=538.17 kg/m3	286.41
482.43 K, Mass density=538.17 kg/m3	287.44
482.62 K, Mass density=538.17 kg/m3	289.22
482.81 K, Mass density=538.17 kg/m3	288.41
483.01 K, Mass density=538.17 kg/m3	289
483.2 K, Mass density=538.17 kg/m3	291.15
483.39 K, Mass density=538.17 kg/m3	289.82
483.58 K, Mass density=538.17 kg/m3	289.59
483.78 K, Mass density=538.17 kg/m3	289.59
487.62 K, Mass density=538.17 kg/m3	282.7
487.81 K, Mass density=538.17 kg/m3	280.25
488 K, Mass density=538.17 kg/m3	282.4
488.19 K, Mass density=538.17 kg/m3	287.74
488.39 K, Mass density=538.17 kg/m3	290.63
489.53 K, Mass density=538.17 kg/m3	283.44
489.73 K, Mass density=538.17 kg/m3	289.07
489.92 K, Mass density=538.17 kg/m3	294.19
490.11 K, Mass density=538.17 kg/m3	289.3
490.87 K, Mass density=538.17 kg/m3	282.03
491.06 K, Mass density=538.17 kg/m3	283.07
491.45 K, Mass density=538.17 kg/m3	285.52
491.64 K, Mass density=538.17 kg/m3	290.85
491.83 K, Mass density=538.17 kg/m3	286.92
492.02 K, Mass density=538.17 kg/m3	283.07
492.21 K, Mass density=538.17 kg/m3	281.44
492.4 K, Mass density=538.17 kg/m3	282.18
492.59 K, Mass density=538.17 kg/m3	258.31
492.78 K, Mass density=538.17 kg/m3	240.45
492.97 K, Mass density=538.17 kg/m3	211.02
493.16 K, Mass density=538.17 kg/m3	211.77
493.36 K, Mass density=538.17 kg/m3	215.03
493.55 K, Mass density=474.07 kg/m3	293.52
493.55 K, Mass density=538.17 kg/m3	215.03
493.74 K, Mass density=474.07 kg/m3	285.37
493.93 K, Mass density=474.07 kg/m3	291.3
494.12 K, Mass density=474.07 kg/m3	294.26
494.31 K, Mass density=474.07 kg/m3	297.97
494.5 K, Mass density=474.07 kg/m3	291.3
494.69 K, Mass density=474.07 kg/m3	288.33
494.88 K, Mass density=474.07 kg/m3	272.77
495.07 K, Mass density=474.07 kg/m3	277.21
495.26 K, Mass density=474.07 kg/m3	272.77
495.45 K, Mass density=474.07 kg/m3	279.44
501.71 K, Mass density=76.44 kg/m3	522.04
501.9 K, Mass density=76.44 kg/m3	509.29
502.09 K, Mass density=76.44 kg/m3	497.21
502.28 K, Mass density=76.44 kg/m3	502.03
502.46 K, Mass density=76.44 kg/m3	499.06
502.65 K, Mass density=76.44 kg/m3	495.28
502.84 K, Mass density=76.44 kg/m3	491.43
503.03 K, Mass density=76.44 kg/m3	490.83
503.22 K, Mass density=76.44 kg/m3	487.05
503.41 K, Mass density=76.44 kg/m3	488.98
503.6 K, Mass density=76.44 kg/m3	491.8
503.97 K, Mass density=76.44 kg/m3	497.73
504.16 K, Mass density=76.44 kg/m3	500.54
504.35 K, Mass density=76.44 kg/m3	512.25
504.54 K, Mass density=76.44 kg/m3	524.04
504.73 K, Mass density=76.44 kg/m3	551.69
504.92 K, Mass density=76.44 kg/m3	530.27
505.11 K, Mass density=76.44 kg/m3	521.82
505.29 K, Mass density=76.44 kg/m3	499.58
505.48 K, Mass density=76.44 kg/m3	412.34
505.67 K, Mass density=76.44 kg/m3	315.91
505.86 K, Mass density=76.44 kg/m3	251.94
506.05 K, Mass density=76.44 kg/m3	248.83
510.37 K, Mass density=474.07 kg/m3	291.3
510.55 K, Mass density=474.07 kg/m3	290.56
510.74 K, Mass density=474.07 kg/m3	293.52
510.93 K, Mass density=474.07 kg/m3	293.52
511.49 K, Mass density=474.07 kg/m3	292.04
511.68 K, Mass density=474.07 kg/m3	295
511.87 K, Mass density=474.07 kg/m3	292.78
512.43 K, Mass density=474.07 kg/m3	296.49
512.61 K, Mass density=474.07 kg/m3	295.75
512.8 K, Mass density=474.07 kg/m3	295.75
513.18 K, Mass density=95.93 kg/m3	639
513.36 K, Mass density=95.93 kg/m3	647.6
513.36 K, Mass density=474.07 kg/m3	281.66
513.55 K, Mass density=95.93 kg/m3	645.08
